Measured values reported in PubChem BioAssay AID1745844 (Carcinogenic Potency Database (CPDB), 2022).
Calls of active or inactive are those of the source. The rule behind the calls is not given here.

Tested on: rodent lifetime carcinogenesis bioassay, tumor incidence TD50
Assay: carcinogenic potency in animals, long-term in vivo studies, CPDB compilation (AID 1745844)

O=C1c2ccccc2-c2ccc3c4c(ccc1c24)-c1ccccc1C3=O
carcinogen call (mouse, strain B6C3F1, females, in feed, site: any site (literature study), lesion: several types, types named in the paper, dosed 106 weeks, study length 106 weeks): negative (inactive) | TD50 (mouse, strain B6C3F1, females, in feed, site: liver, lesion: hepatocellular adenoma + hepatocellular carcinoma + neoplastic nodule, dosed 106 weeks, study length 106 weeks): 23900 mg/kg/day | TD50 (mouse, strain B6C3F1, males, in feed, site: all sites, lesion: lymphoma, dosed 106 weeks, study length 106 weeks): 10900 mg/kg/day | TD50 (mouse, strain B6C3F1, males, in feed, site: any site (literature study), lesion: several types, types named in the paper, dosed 106 weeks, study length 106 weeks): 4410 mg/kg/day | TD50 (mouse, strain B6C3F1, males, in feed, site: liver, lesion: hepatocellular adenoma + hepatocellular carcinoma + neoplastic nodule, dosed 106 weeks, study length 106 weeks): 8610 mg/kg/day | TD50 (mouse, strain B6C3F1, males, in feed, site: lung, lesion: alveolar/bronchiolar adenoma + alveolar/bronchiolar carcinoma, dosed 106 weeks, study length 106 weeks): 19100 mg/kg/day | carcinogen call (rat, strain Fischer 344, females, in feed, site: any site (literature study), lesion: several types, types named in the paper, dosed 104 weeks, study length 104 weeks): negative (inactive) | TD50 (rat, strain Fischer 344, males, in feed, site: any site (literature study), lesion: several types, types named in the paper, dosed 104 weeks, study length 104 weeks): 787 mg/kg/day (inactive) | TD50 (rat, strain Fischer 344, males, in feed, site: liver, lesion: hepatocellular adenoma + hepatocellular carcinoma + neoplastic nodule, dosed 104 weeks, study length 104 weeks): 2790 mg/kg/day

CCCCCCCCCCCN(C)N=O
TD50 (rat, strain Fischer 344, males, by gavage, site: esophagus, lesion: squamous-cell carcinoma, dosed 30 weeks, study length 65 weeks): 15.4 mg/kg/day | TD50 (rat, strain Fischer 344, males, by gavage, site: liver, lesion: cholangiocarcinoma, dosed 30 weeks, study length 65 weeks): 3.18 mg/kg/day | TD50 (rat, strain Fischer 344, males, by gavage, site: liver, lesion: hepatocellular carcinoma, dosed 30 weeks, study length 65 weeks): 2.38 mg/kg/day | TD50 (rat, strain Fischer 344, males, by gavage, site: lung, lesion: alveolar adenoma, dosed 30 weeks, study length 65 weeks): 2.41 mg/kg/day | TD50 (rat, strain Fischer 344, males, by gavage, site: lung, lesion: alveolar-cell adenoma, dosed 30 weeks, study length 65 weeks): 4.99 mg/kg/day | TD50 (rat, strain Fischer 344, males, by gavage, site: lung, lesion: squamous-cell carcinoma, dosed 30 weeks, study length 65 weeks): 2.37 mg/kg/day | TD50 (rat, strain Fischer 344, males, by gavage, site: stomach, nonglandular, lesion: papilloma, dosed 30 weeks, study length 65 weeks): 15.4 mg/kg/day

CN(CCCC(O)c1cccnc1)N=O (centres undefined)
TD50 (rat, strain Fischer 344, males, in drinking water, site: adrenal medulla, lesion: one or several types, types not named, dosed 112 weeks, study length 112 weeks): 1.39 mg/kg/day | TD50 (rat, strain Fischer 344, males, in drinking water, site: liver, lesion: hepatoma, dosed 112 weeks, study length 112 weeks): 5.86 mg/kg/day | TD50 (rat, strain Fischer 344, males, in drinking water, site: liver, lesion: several types, types named in the paper, dosed 112 weeks, study length 112 weeks): 7.25 mg/kg/day | TD50 (rat, strain Fischer 344, males, in drinking water, site: lung, lesion: adenocarcinoma, dosed 112 weeks, study length 112 weeks): 0.409 mg/kg/day | TD50 (rat, strain Fischer 344, males, in drinking water, site: lung, lesion: adenoma, dosed 112 weeks, study length 112 weeks): 1.38 mg/kg/day | TD50 (rat, strain Fischer 344, males, in drinking water, site: lung, lesion: adenosquamous carcinoma, dosed 112 weeks, study length 112 weeks): 0.577 mg/kg/day | TD50 (rat, strain Fischer 344, males, in drinking water, site: lung, lesion: several types, types named in the paper, dosed 112 weeks, study length 112 weeks): 0.103 mg/kg/day | TD50 (rat, strain Fischer 344, males, in drinking water, site: pancreas, exocrine, lesion: acinar-cell adenoma, dosed 112 weeks, study length 112 weeks): 2.14 mg/kg/day | TD50 (rat, strain Fischer 344, males, in drinking water, site: pancreas, exocrine, lesion: adenocarcinoma, acinar or ductal, dosed 112 weeks, study length 112 weeks): 1.09 mg/kg/day | TD50 (rat, strain Fischer 344, males, in drinking water, site: pancreas, exocrine, lesion: several types, types named in the paper, dosed 112 weeks, study length 112 weeks): 0.668 mg/kg/day

CCN(CC)C(=O)Nc1ccc(OCC(O)CNC(C)(C)C)c(C(C)=O)c1 (centres undefined)
TD50 (mouse, strain Charles River CD1, females, in feed, site: lung, lesion: several types, types named in the paper, dosed 104 weeks, study length 104 weeks): 8020 mg/kg/day (inactive) | TD50 (mouse, strain Charles River CD1, males, in feed, site: lung, lesion: several types, types named in the paper, dosed 104 weeks, study length 104 weeks): 4710 mg/kg/day (inactive) | TD50 (rat, strain Sprague-Dawley, females, in feed, site: any site (literature study), lesion: several types, types named in the paper, dosed 104 weeks, study length 104 weeks): 2480 mg/kg/day (inactive) | TD50 (rat, strain Sprague-Dawley, females, in feed, site: liver, lesion: hepatocellular adenoma, dosed 104 weeks, study length 104 weeks): 38100 mg/kg/day (inactive) | TD50 (rat, strain Sprague-Dawley, females, in feed, site: liver, lesion: hepatocellular carcinoma, dosed 104 weeks, study length 104 weeks): 38100 mg/kg/day (inactive) | TD50 (rat, strain Sprague-Dawley, males, in feed, site: any site (literature study), lesion: several types, types named in the paper, dosed 104 weeks, study length 104 weeks): 684 mg/kg/day (inactive) | TD50 (rat, strain Sprague-Dawley, males, in feed, site: liver, lesion: hepatocellular adenoma, dosed 104 weeks, study length 104 weeks): 12400 mg/kg/day (inactive) | carcinogen call (rat, strain Sprague-Dawley, males, in feed, site: liver, lesion: hepatocellular carcinoma, dosed 104 weeks, study length 104 weeks): negative (inactive)
